Reference: PubChem BioAssay AID1963427 (Molecular Pharmacology Branch, DTP, NCI, 2024)

Tested on: 317291-083-R-J1-PDC complex spheroid growth
Test: Anticancer human tumor 317291-083-R-J1-PDC patient-derived soft tissue sarcoma cell line growth inhibition [Asc]
Conditions: for IC50: curve of first compound; for viability, T/C: stronger effect = lower value
Outline: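 Concentration series start at each agent's clinical Cmax, or at 10 microM when none is established, and drop in half-log steps; agents are applied alone or together to complex spheroids built with HUVEC and hMSC.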

[1] = second compound 0.0316 µM, first compound 0.00316 µM
[2] = second compound 0.0316 µM, first compound 0.01 µM
[3] = second compound 0.0316 µM, first compound 0.0316 µM
[4] = second compound 0.0316 µM, first compound 0.1 µM
[5] = second compound 0.1 µM, first compound 0.00316 µM
[6] = second compound 0.1 µM, first compound 0.01 µM
[7] = second compound 0.1 µM, first compound 0.0316 µM
[8] = second compound 0.1 µM, first compound 0.1 µM
[9] = second compound 0.316 µM, first compound 0.00316 µM
[10] = second compound 0.316 µM, first compound 0.01 µM
[11] = second compound 0.316 µM, first compound 0.0316 µM
[12] = second compound 0.316 µM, first compound 0.1 µM
[13] = second compound 1 µM, first compound 0.00316 µM
[14] = second compound 1 µM, first compound 0.01 µM
[15] = second compound 1 µM, first compound 0.0316 µM
[16] = second compound 1 µM, first compound 0.1 µM
[17] = second compound 3.16 µM, first compound 0.00316 µM
[18] = second compound 3.16 µM, first compound 0.01 µM
[19] = second compound 3.16 µM, first compound 0.0316 µM
[20] = second compound 3.16 µM, first compound 0.1 µM
[21] = second compound 10 µM, first compound 0.00316 µM
[22] = second compound 10 µM, first compound 0.01 µM
[23] = second compound 10 µM, first compound 0.0316 µM
[24] = second compound 10 µM, first compound 0.1 µM
[25] = second compound 0.0316 µM, first compound 0.316 µM
[26] = second compound 0.0316 µM, first compound 1 µM
[27] = second compound 0.1 µM, first compound 0.316 µM
[28] = second compound 0.1 µM, first compound 1 µM
[29] = second compound 0.316 µM, first compound 0.316 µM
[30] = second compound 0.316 µM, first compound 1 µM
[31] = second compound 1 µM, first compound 0.316 µM
[32] = second compound 1 µM, first compound 1 µM
[33] = second compound 3.16 µM, first compound 0.316 µM
[34] = second compound 3.16 µM, first compound 1 µM
[35] = second compound 10 µM, first compound 0.316 µM
[36] = second compound 10 µM, first compound 1 µM
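Further: compound exposure lasted seven days after spheroids formed for three days.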
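Wherever viability, T/C is given: 100% = DMSO vehicle control wells.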

Cn1ncnc1[C@H]1c2n[nH]c(=O)c3cc(F)cc(c23)N[C@@H]1c1ccc(F)cc1 + Cc1c(S(C)(=O)=O)c(-c2cc(F)cc(N3CCN(c4ccc(NS(=O)(=O)c5ccc(NC(CCN6CCC(C(=O)OCCCP(=O)(O)O)CC6)CSc6ccccc6)c(S(=O)(=O)C(F)(F)F)c5)cc4)CC3)c2)c(-c2ccc(Cl)cc2)n1C(C)C
IC50 (second compound 0.0316 µM): > 100 nM | IC50 (second compound 0.1 µM): > 100 nM | IC50 (second compound 0.316 µM): 81 nM | IC50 (second compound 1 µM): 49.7 nM | IC50 (second compound 3.16 µM): 55 nM | IC50 (second compound 10 µM): 32.5 nM | viability, T/C (second compound 0.0316 µM, first compound 0.000316 µM): 93.2% | viability, T/C (second compound 0.0316 µM, first compound 0.001 µM): 91.5% | viability, T/C [1]: 78.4% | viability, T/C [2]: 85.6% | viability, T/C [3]: 67.1% | viability, T/C [4]: 56.6% | viability, T/C (second compound 0.1 µM, first compound 0.000316 µM): 91% | viability, T/C (second compound 0.1 µM, first compound 0.001 µM): 90.8% | viability, T/C [5]: 88.1% | viability, T/C [6]: 77.9% | viability, T/C [7]: 64.7% | viability, T/C [8]: 55.5% | viability, T/C (second compound 0.316 µM, first compound 0.000316 µM): 83.2% | viability, T/C (second compound 0.316 µM, first compound 0.001 µM): 74.1% | viability, T/C [9]: 85.5% | viability, T/C [10]: 66.8% | viability, T/C [11]: 63% | viability, T/C [12]: 47.1% | viability, T/C (second compound 1 µM, first compound 0.000316 µM): 78.4% | viability, T/C (second compound 1 µM, first compound 0.001 µM): 77.3% | viability, T/C [13]: 71.2% | viability, T/C [14]: 55.5% | viability, T/C [15]: 63.2% | viability, T/C [16]: 40.4% | viability, T/C (second compound 3.16 µM, first compound 0.000316 µM): 81.5% | viability, T/C (second compound 3.16 µM, first compound 0.001 µM): 65.9% | viability, T/C [17]: 72.3% | viability, T/C [18]: 60.6% | viability, T/C [19]: 57.5% | viability, T/C [20]: 43.4% | viability, T/C (second compound 10 µM, first compound 0.000316 µM): 99.5% | viability, T/C (second compound 10 µM, first compound 0.001 µM): 92.9% | viability, T/C [21]: 71.5% | viability, T/C [22]: 66.2% | viability, T/C [23]: 48.3% | viability, T/C [24]: 41.9%

O=C(c1cc(Cc2n[nH]c(=O)c3ccccc23)ccc1F)N1CCN(C(=O)C2CC2)CC1 + Cc1c(S(C)(=O)=O)c(-c2cc(F)cc(N3CCN(c4ccc(NS(=O)(=O)c5ccc(NC(CCN6CCC(C(=O)OCCCP(=O)(O)O)CC6)CSc6ccccc6)c(S(=O)(=O)C(F)(F)F)c5)cc4)CC3)c2)c(-c2ccc(Cl)cc2)n1C(C)C
IC50 (second compound 0.0316 µM): 6940 nM | IC50 (second compound 0.1 µM): 8290 nM | IC50 (second compound 0.316 µM): 5210 nM | IC50 (second compound 1 µM): 4350 nM | IC50 (second compound 3.16 µM): 5160 nM | IC50 (second compound 10 µM): 5440 nM | viability, T/C [3]: 84.8% | viability, T/C [4]: 72.5% | viability, T/C [25]: 88% | viability, T/C [26]: 75.9% | viability, T/C (second compound 0.0316 µM, first compound 3.16 µM): 68.2% | viability, T/C (second compound 0.0316 µM, first compound 10 µM): 41.5% | viability, T/C [7]: 90% | viability, T/C [8]: 87.3% | viability, T/C [27]: 79.1% | viability, T/C [28]: 84% | viability, T/C (second compound 0.1 µM, first compound 3.16 µM): 70% | viability, T/C (second compound 0.1 µM, first compound 10 µM): 45.9% | viability, T/C [11]: 82.8% | viability, T/C [12]: 80.5% | viability, T/C [29]: 90.2% | viability, T/C [30]: 75.7% | viability, T/C (second compound 0.316 µM, first compound 3.16 µM): 61.8% | viability, T/C (second compound 0.316 µM, first compound 10 µM): 35.3% | viability, T/C [15]: 73.7% | viability, T/C [16]: 98.6% | viability, T/C [31]: 69.1% | viability, T/C [32]: 63.7% | viability, T/C (second compound 1 µM, first compound 3.16 µM): 64.7% | viability, T/C (second compound 1 µM, first compound 10 µM): 27.9% | viability, T/C [19]: 75.7% | viability, T/C [20]: 62.6% | viability, T/C [33]: 61.8% | viability, T/C [34]: 54.1% | viability, T/C (second compound 3.16 µM, first compound 3.16 µM): 67.6% | viability, T/C (second compound 3.16 µM, first compound 10 µM): 30.8% | viability, T/C [23]: 90.6% | viability, T/C [24]: 83.4% | viability, T/C [35]: 95.8% | viability, T/C [36]: 83.2% | viability, T/C (second compound 10 µM, first compound 3.16 µM): 69.1% | viability, T/C (second compound 10 µM, first compound 10 µM): 28.9%

O=C(c1ccc(F)c(F)c1Nc1ccc(I)cc1F)N1CC(O)([C@@H]2CCCCN2)C1 + Cc1c(S(C)(=O)=O)c(-c2cc(F)cc(N3CCN(c4ccc(NS(=O)(=O)c5ccc(NC(CCN6CCC(C(=O)OCCCP(=O)(O)O)CC6)CSc6ccccc6)c(S(=O)(=O)C(F)(F)F)c5)cc4)CC3)c2)c(-c2ccc(Cl)cc2)n1C(C)C
IC50 (second compound 0.0316 µM): 419 nM | IC50 (second compound 0.1 µM): 344 nM | IC50 (second compound 0.316 µM): 291 nM | IC50 (second compound 1 µM): 443 nM | IC50 (second compound 3.16 µM): 322 nM | IC50 (second compound 10 µM): 319 nM | viability, T/C [1]: 98.2% | viability, T/C [2]: 96.5% | viability, T/C [3]: 99.2% | viability, T/C [4]: 97.7% | viability, T/C [25]: 60.5% | viability, T/C [26]: 17.5% | viability, T/C [5]: 85.2% | viability, T/C [6]: 81.6% | viability, T/C [7]: 72.2% | viability, T/C [8]: 111% | viability, T/C [27]: 52.9% | viability, T/C [28]: 13.2% | viability, T/C [9]: 85% | viability, T/C [10]: 76.7% | viability, T/C [11]: 75.3% | viability, T/C [12]: 103% | viability, T/C [29]: 47.4% | viability, T/C [30]: 10.6% | viability, T/C [13]: 76.7% | viability, T/C [14]: 85.5% | viability, T/C [15]: 72.6% | viability, T/C [16]: 73% | viability, T/C [31]: 67.3% | viability, T/C [32]: 11.2% | viability, T/C [17]: 74.9% | viability, T/C [18]: 72.7% | viability, T/C [19]: 73% | viability, T/C [20]: 79.4% | viability, T/C [33]: 50.7% | viability, T/C [34]: 9.52% | viability, T/C [21]: 76.9% | viability, T/C [22]: 92% | viability, T/C [23]: 73% | viability, T/C [24]: 97.9% | viability, T/C [35]: 50.2% | viability, T/C [36]: 16.8%
